Experimental data taken from ChEMBL document CHEMBL1201862, “PubChem BioAssay data set” (2004).
Values joined by “and” are separate entries in the source; they are usually repeats but may differ in a detail not shown here. Equal entries are not always repeated. Active and inactive are the calls of the source.

Legend:
[1] = molecular target: T1, Heat shock factor protein 1 (Mus musculus, UniProt P38532); assay: inhibition of MG132-induced HSE-luciferase signal, confirmation, cell-based, NIH3T3, luminescence, dose retest (AID 2382); assay type: functional;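 further: NIH3T3 fibroblasts with HSF1-driven luciferase reporter stressed by proteasome inhibitor MG132; luminescence from HSF1-driven luciferase expression after 8 hours of MG132 stress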
T1 sequence (P38532 whole entry): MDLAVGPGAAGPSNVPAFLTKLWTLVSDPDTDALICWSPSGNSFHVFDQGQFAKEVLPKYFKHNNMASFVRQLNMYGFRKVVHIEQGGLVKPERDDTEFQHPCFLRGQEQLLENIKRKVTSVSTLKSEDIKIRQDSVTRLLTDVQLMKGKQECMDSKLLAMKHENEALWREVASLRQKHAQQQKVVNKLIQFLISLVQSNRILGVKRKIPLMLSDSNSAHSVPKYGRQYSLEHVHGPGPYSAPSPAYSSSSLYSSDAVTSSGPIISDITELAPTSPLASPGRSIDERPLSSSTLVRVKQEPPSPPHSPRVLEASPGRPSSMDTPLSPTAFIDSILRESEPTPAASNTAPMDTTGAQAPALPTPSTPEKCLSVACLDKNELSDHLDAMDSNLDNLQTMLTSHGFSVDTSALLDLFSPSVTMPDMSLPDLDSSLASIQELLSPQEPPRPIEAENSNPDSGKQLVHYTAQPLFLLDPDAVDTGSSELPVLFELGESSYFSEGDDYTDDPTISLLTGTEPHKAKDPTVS

[2] = molecular target: T2, Intestinal-type alkaline phosphatase (Mus musculus, UniProt P24822); assay: mouse intestinal alkaline phosphatase activators, dose response, biochemical, luminescence, uHTS hits (AID 488783); assay type: functional
[3] = molecular target: Intestinal-type alkaline phosphatase (Homo sapiens, UniProt P09923); assay: activation of human intestinal alkaline phosphatase – biochemical, dose response (AID 488873); assay type: functional
[4] = molecular target: T3, Alkaline phosphatase, tissue-nonspecific isozyme (Homo sapiens, UniProt P05186); assay: TNAP enzyme activators, dose response, selectivity assay for mouse IAP activator project, biochemical, TNAP isozyme, mouse IAP uHTS hits (AID 488880); assay type: functional
T3 sequence (P05186 whole entry): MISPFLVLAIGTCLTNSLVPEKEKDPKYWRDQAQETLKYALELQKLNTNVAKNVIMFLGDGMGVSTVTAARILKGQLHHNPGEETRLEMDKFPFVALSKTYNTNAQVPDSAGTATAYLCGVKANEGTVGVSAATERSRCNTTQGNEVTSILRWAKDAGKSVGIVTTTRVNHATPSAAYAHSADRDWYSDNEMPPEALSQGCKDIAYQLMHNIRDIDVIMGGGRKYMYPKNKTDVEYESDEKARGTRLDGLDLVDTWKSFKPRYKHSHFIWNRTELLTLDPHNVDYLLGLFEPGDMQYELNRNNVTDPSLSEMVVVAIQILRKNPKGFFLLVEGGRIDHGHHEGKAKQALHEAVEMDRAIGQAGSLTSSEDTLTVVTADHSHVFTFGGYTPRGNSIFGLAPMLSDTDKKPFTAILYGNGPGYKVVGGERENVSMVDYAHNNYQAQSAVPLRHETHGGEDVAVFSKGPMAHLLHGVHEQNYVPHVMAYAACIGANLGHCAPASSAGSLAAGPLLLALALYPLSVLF

CAAX prenyl protease 2 = CAAX prenyl protease 2 (Homo sapiens, UniProt Q9Y256); assay: human Rce1 protease inhibitors, dose response, biochemical, yeast membranes, quenched-peptide fluorescence, cherry-pick (AID 588849)
CAAX prenyl protease 1 = CAAX prenyl protease 1 (Saccharomyces cerevisiae S288c, UniProt P47154); assay: Ste24 protease inhibitors, dose response, biochemical, S. cerevisiae, plate reader, cherry-pick (AID 488815)
Cannabinoid receptor 2 [5] = molecular target: T4, Cannabinoid receptor 2 (Homo sapiens, UniProt P34972); assay: SAR analysis of antagonists of the Cannabinoid Receptor 2 using an Image-Based Assay - Set 3. [Related pubchem assays (depositor defined):AID2013, AID2026]; assay type: functional
[6] = molecular target: T5, G-protein coupled receptor 35 (Homo sapiens, UniProt Q9HC97); assay: SAR analysis of Antagonists of the GPR35 Receptor using an Image-Based Assay - Set 6. [Related pubchem assays (depositor defined):AID2013, AID2026]; assay type: functional
Cannabinoid receptor 1 [7] = molecular target: T6, Cannabinoid receptor 1 (Homo sapiens, UniProt P21554); assay: SAR analysis of agonists of the Cannabinoid Receptor 1 using an Image-Based Assay - Set 4. [Related pubchem assays (depositor defined):AID2013, AID2026]; assay type: functional
Streptokinase A = molecular target: T7, Streptokinase A (Streptococcus pyogenes serotype M1, UniProt P10520); assay: S. pyogenes streptokinase expression inhibitors, potency, dose response, plasminogen activation absorbance, OD405 (AID 1914); assay type: functional, Streptococcus pyogenes M1 GAS;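 further: secreted streptokinase activity via plasminogen activation per viability signal from cell pellet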
T7 sequence (P10520 whole entry): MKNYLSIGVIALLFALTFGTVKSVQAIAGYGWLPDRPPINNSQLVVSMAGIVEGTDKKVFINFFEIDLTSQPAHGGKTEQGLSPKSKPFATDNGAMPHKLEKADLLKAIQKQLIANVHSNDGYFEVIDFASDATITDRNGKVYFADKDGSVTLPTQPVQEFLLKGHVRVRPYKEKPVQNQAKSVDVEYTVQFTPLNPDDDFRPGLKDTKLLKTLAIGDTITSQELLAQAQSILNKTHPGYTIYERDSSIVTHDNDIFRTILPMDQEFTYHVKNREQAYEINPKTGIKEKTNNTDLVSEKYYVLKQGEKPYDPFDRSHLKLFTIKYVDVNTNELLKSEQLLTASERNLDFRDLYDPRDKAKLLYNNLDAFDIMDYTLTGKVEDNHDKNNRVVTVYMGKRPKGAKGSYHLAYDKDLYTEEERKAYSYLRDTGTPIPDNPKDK

[8] = molecular target: T5, G-protein coupled receptor 35; assay: SAR analysis of Agonists of the GPR35 Receptor using an Image-Based Assay - Set 4. [Related pubchem assays (depositor defined):AID2013, AID2026]; assay type: functional
Cannabinoid receptor 2 [9] = molecular target: T4, Cannabinoid receptor 2; assay: SAR analysis of agonists of the Cannabinoid Receptor 2 using an Image-Based Assay - Set 3. [Related pubchem assays (depositor defined):AID2013, AID2026]; assay type: functional
Cytochrome P450 2D6 = Cytochrome P450 2D6 (Homo sapiens, UniProt P10635);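 further: CYP2D6 member of a cytochrome P450 panel assay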
Cannabinoid receptor 1 [10] = molecular target: T6, Cannabinoid receptor 1; assay: SAR analysis of antagonists of the Cannabinoid Receptor 1 using an Image-Based Assay - Set 4. [Related pubchem assays (depositor defined):AID2013, AID2026]; assay type: functional
[11] = molecular target: G-protein coupled receptor 55 (Homo sapiens, UniProt Q9Y2T6); assay: SAR Analysis of Selective Antagonists of GPR55 using an Image-Based Assay - Set 4. [Related pubchem assays (depositor defined):AID2013, AID2026]; assay type: functional;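 further: antagonism of response to 5 µM lysophosphatidylinositol agonist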
[12] = molecular target: Tyrosine-protein phosphatase non-receptor type 7 (Homo sapiens, UniProt P35236); assay type: functional
[13] = molecular target: T8, Tyrosine-protein phosphatase non-receptor type 22 (Homo sapiens, UniProt Q9Y2R2); assay type: functional
T8 sequence (Q9Y2R2 whole entry): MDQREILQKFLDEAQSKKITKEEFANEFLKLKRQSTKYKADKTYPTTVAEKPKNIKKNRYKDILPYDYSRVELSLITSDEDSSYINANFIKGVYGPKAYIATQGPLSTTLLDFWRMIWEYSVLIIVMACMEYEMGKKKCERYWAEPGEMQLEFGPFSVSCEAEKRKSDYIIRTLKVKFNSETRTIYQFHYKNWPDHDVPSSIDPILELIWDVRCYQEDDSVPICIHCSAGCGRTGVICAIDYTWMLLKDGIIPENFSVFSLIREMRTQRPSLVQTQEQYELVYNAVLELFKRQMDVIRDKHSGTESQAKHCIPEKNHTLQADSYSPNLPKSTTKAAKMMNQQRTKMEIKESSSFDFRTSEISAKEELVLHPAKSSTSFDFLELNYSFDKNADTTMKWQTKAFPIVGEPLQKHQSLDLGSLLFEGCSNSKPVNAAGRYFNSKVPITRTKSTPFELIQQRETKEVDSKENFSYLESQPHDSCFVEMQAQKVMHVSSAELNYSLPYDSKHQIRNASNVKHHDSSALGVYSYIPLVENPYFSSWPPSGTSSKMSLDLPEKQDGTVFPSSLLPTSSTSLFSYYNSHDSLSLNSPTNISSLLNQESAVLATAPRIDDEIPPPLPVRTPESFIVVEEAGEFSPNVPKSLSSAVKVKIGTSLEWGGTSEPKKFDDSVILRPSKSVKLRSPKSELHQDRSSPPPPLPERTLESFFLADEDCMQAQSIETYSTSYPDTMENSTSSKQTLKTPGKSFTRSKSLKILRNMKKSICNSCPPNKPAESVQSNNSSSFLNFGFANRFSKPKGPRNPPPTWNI

[14] = molecular target: T8, Tyrosine-protein phosphatase non-receptor type 22; assay type: functional; remark: listed apart in the source
Phosphomannomutase 2 = Phosphomannomutase 2 (Homo sapiens, UniProt O15305); assay: Counter screen SAR assay for PMM2 inhibitors via a fluorescence intensity assay. [Related pubchem assays (depositor defined):AID1545, AID1574]
[15] = molecular target: Phosphoethanolamine/phosphocholine phosphatase (Homo sapiens, UniProt Q8TCT1); assay: SAR assay for compounds that inhibit PHOSPHO1. [Related pubchem assays (depositor defined):AID1545, AID1565, AID1574]
[16] = molecular target: T9, Mannose-6-phosphate isomerase (Homo sapiens, UniProt P34949); assay: PMI enzyme inhibitors, confirmation, biochemical, fluorescence intensity (AID 1535)
T9 sequence (P34949 whole entry): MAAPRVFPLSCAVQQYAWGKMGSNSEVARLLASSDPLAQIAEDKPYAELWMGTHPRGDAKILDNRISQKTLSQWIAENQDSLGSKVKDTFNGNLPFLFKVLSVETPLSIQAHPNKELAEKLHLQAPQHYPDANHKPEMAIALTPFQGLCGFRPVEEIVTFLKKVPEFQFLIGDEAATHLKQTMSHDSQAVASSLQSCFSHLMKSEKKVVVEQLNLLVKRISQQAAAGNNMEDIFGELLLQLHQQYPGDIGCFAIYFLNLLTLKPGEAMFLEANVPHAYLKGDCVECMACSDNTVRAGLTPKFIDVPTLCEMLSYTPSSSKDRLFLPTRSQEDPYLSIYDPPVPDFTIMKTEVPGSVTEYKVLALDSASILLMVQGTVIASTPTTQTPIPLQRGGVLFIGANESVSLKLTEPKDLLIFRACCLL

HEK293 [17] = assay: NOD2 signaling inhibitors in MDP-stimulated cells, cell-based, uHTS, luminescence (AID 2001); assay type: functional; details: Homo sapiens
Tumor necrosis factor = Tumor necrosis factor (Homo sapiens, UniProt P01375); assay: TNFa-triggered NF-kB activation inhibitors, SAR follow-up, cell-based, revised (AID 2337); assay type: functional
HEK293 [18] = assay: cells; details: Homo sapiens
HEK293 [19] = assay: cells; assay type: functional, cell-based; details: Homo sapiens
HEK293 [20] = assay: cells; assay type: functional, cell-based; details: Homo sapiens; remark: listed apart in the source
[21] = cytotoxicity in HEK-293T cells, dose response, cytotoxicity control for TCR NF-kB inhibitor project, luminescence, T-cell screen hits (AID 489026); assay type: functional, cell-based;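 further: cells exposed to compound about 14 hours before the viability readout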
HEK293 [22] = assay: NOD1 signaling inhibitors, primary screen, cell-based, luminescence, uHTS (AID 1578); assay type: functional; details: Homo sapiens
[23] = molecular target: Nucleotide-binding oligomerization domain-containing protein 1 (Homo sapiens, UniProt Q9Y239); assay: NOD1 signaling inhibitors, SAR follow-up, revised (AID 2333); assay type: functional
[24] = molecular target: Nucleotide-binding oligomerization domain-containing protein 2 (Homo sapiens, UniProt Q9HC29); assay: NOD2 signaling inhibitors, cell-based, luminescence, uHTS, HEK293 (AID 1566); assay type: functional
HEK293 [25] = assay: cells; assay type: functional, cell-based; details: Homo sapiens; remark: listed apart in the source
[26] = molecular target: T3, Alkaline phosphatase, tissue-nonspecific isozyme; assay: TNAP enzyme inhibition by screening hits, dose response, selectivity assay for mouse IAP inhibitor project, biochemical, human TNAP, uHTS hits (AID 488906); assay type: functional
[27] = molecular target: T2, Intestinal-type alkaline phosphatase; assay: PubChem AID 488785; assay type: functional

T4 sequence (P34972 whole entry): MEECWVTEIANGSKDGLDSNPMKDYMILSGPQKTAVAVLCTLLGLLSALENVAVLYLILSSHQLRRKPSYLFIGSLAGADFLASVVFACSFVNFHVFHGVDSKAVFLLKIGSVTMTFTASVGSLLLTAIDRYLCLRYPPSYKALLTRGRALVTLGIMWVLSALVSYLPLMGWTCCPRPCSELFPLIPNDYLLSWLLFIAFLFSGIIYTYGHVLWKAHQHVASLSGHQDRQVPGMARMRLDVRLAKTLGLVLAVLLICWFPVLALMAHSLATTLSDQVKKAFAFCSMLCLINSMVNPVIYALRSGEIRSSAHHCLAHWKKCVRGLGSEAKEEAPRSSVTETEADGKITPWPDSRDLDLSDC
T6 sequence (P21554 whole entry): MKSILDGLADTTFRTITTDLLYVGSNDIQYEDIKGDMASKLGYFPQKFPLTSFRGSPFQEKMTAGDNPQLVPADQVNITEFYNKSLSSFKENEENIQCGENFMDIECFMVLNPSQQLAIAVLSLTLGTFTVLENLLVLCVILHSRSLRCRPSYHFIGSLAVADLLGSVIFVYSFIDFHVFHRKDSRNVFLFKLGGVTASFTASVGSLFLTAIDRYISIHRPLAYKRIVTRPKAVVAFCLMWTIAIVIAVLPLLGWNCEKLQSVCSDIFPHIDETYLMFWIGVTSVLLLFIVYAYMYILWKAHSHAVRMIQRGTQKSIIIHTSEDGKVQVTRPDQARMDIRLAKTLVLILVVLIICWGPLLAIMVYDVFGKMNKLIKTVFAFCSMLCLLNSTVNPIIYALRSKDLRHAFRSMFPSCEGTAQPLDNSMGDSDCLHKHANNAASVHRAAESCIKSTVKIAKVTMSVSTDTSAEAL
T5 sequence (Q9HC97 whole entry): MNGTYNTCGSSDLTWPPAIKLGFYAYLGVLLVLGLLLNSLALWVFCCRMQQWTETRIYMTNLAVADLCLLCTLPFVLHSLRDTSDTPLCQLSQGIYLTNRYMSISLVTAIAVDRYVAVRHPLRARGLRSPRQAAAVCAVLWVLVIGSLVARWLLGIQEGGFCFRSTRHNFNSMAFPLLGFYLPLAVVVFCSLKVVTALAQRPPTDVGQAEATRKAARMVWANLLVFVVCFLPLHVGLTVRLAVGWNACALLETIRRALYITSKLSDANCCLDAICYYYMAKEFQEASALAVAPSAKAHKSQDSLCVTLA
T2 sequence (P24822 whole entry): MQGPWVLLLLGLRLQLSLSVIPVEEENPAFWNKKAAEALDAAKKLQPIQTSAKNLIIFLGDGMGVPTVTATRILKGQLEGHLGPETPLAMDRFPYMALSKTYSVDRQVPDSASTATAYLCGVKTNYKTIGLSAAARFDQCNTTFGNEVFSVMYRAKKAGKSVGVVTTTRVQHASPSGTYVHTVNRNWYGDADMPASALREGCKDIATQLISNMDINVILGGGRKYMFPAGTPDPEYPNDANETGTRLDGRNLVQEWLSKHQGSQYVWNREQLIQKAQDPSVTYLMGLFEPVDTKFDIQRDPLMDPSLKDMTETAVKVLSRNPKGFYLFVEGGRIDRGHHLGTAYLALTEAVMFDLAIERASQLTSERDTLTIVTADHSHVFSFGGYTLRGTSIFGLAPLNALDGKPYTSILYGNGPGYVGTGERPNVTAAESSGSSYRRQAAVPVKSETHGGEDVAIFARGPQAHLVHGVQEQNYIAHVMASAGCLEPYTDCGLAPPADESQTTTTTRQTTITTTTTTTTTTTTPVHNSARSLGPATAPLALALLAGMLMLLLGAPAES
Sequence of G-protein coupled receptor 55 (Q9Y2T6 whole entry): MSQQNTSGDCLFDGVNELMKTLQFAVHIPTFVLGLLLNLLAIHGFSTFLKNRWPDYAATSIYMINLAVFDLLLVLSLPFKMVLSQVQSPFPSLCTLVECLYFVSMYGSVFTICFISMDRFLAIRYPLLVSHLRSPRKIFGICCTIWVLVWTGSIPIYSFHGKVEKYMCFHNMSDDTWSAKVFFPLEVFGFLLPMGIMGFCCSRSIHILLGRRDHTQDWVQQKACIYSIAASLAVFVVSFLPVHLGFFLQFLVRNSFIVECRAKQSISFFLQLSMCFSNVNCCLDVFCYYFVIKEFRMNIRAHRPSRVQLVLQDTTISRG
Sequence of Intestinal-type alkaline phosphatase (Homo sapiens, UniProt P09923) (P09923 whole entry): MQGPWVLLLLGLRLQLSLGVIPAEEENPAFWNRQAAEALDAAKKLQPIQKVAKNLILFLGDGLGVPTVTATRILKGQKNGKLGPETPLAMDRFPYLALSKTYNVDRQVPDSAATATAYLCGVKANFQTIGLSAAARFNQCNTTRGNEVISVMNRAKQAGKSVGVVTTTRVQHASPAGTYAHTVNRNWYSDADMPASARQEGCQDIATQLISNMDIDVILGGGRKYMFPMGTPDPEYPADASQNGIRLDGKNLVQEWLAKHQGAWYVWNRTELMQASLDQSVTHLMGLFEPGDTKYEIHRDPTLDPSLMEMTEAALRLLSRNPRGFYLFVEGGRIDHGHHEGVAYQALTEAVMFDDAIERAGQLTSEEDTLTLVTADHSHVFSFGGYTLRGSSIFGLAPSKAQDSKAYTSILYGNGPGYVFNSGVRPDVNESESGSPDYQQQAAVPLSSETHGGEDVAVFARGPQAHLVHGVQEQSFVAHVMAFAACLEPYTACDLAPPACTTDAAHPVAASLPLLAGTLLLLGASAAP
Sequence of Tumor necrosis factor (P01375 whole entry): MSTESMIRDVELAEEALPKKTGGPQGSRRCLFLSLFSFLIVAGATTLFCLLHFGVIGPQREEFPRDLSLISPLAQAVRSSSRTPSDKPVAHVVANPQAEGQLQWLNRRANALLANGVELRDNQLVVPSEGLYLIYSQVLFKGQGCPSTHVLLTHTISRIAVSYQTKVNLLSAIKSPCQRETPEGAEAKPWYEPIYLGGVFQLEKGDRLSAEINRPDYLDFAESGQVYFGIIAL
Sequence of Phosphomannomutase 2 (O15305 whole entry): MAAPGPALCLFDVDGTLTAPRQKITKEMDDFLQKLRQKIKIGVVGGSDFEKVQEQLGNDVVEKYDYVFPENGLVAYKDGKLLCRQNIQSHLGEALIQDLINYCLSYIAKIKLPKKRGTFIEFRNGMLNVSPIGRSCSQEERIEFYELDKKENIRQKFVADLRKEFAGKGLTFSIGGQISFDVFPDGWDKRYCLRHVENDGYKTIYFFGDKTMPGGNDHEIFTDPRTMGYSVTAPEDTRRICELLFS
Sequence of Phosphoethanolamine/phosphocholine phosphatase (Q8TCT1 whole entry): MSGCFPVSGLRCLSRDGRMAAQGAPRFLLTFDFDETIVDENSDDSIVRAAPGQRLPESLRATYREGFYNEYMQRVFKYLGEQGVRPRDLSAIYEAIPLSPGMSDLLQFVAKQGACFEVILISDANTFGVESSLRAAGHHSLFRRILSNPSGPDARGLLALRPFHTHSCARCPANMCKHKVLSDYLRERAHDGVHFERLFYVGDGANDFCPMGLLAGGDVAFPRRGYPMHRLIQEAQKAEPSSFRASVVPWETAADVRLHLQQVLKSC
Sequence of Tyrosine-protein phosphatase non-receptor type 7 (P35236 whole entry): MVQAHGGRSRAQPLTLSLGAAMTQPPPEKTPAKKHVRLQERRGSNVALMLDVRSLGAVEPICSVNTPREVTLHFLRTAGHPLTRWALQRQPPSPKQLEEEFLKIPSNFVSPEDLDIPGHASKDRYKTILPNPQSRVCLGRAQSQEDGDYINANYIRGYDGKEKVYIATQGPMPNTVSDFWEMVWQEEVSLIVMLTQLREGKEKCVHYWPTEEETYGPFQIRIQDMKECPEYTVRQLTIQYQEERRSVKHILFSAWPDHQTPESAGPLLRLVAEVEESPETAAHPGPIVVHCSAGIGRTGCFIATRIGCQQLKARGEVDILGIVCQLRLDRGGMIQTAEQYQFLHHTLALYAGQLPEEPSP
Sequence of CAAX prenyl protease 1 (P47154 whole entry): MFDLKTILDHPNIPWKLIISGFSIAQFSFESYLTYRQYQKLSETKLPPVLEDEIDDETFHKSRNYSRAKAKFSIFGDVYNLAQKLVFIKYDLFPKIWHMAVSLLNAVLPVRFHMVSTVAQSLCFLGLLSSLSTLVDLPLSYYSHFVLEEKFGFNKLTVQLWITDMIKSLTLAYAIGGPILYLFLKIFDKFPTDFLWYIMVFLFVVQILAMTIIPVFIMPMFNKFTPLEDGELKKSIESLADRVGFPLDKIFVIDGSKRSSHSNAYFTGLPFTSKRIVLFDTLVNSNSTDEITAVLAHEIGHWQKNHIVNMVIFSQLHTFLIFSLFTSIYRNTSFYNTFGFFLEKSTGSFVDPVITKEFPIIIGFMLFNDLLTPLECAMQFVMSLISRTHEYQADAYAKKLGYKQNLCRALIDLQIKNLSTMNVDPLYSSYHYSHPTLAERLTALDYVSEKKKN
Sequence of CAAX prenyl protease 2 (Q9Y256 whole entry): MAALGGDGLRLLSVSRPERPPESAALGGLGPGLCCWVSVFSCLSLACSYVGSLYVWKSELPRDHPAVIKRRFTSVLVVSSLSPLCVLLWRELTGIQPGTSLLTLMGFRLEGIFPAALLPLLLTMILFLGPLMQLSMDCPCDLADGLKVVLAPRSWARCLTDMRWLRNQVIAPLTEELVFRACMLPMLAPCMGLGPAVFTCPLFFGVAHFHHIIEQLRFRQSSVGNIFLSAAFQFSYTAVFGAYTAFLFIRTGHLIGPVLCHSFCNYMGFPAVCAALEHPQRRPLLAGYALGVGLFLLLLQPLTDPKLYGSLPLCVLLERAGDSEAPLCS

COc1cc(OC)c(NC(=O)CN(C)S(=O)(=O)c2ccc3nc(O)oc3c2)cc1Cl
EC50 [1]: > 195 µM (not active) | EC50 [2]: 51.5 µM (active) | EC50 [3]: 68.4 µM (active) | EC50 [4]: 70.7 µM (active)

O=C(NCC1CC1)c1cc(-c2ccccc2)nn1CC1CC(c2cccc([N+](=O)[O-])c2)=NO1 (centres undefined)
AC50 (CAAX prenyl protease 2): 11.7 µM (active) | AC50 (CAAX prenyl protease 1): 6.73 µM (active)

COc1ccc(-c2n[nH]c(C)c2-c2ccc(Cl)cc2)c(O)c1
IC50 (Cannabinoid receptor 2 [5]): 5.22 µM (active) and 4.83 µM (active) | IC50 [6]: > 32 µM (inactive) | EC50 (Cannabinoid receptor 1 [7]): > 32 µM (inactive) | EC50 (Streptokinase A): 9.86 µM (active) | EC50 [8]: > 32 µM (inactive) | EC50 (Cannabinoid receptor 2 [9]): 4.81 µM (active) and 5.4 µM (active) | AC50 (Cytochrome P450 2D6): 28.2 µM (inconclusive) | IC50 (Cannabinoid receptor 1 [10]): 548 nM (active) and 607 nM (active) | IC50 [11]: 10.9 µM (inactive) and 13.4 µM (inactive)

C=CCN(CC=C)C(=S)NC(=O)/C=C/c1ccc(C)cc1
IC50 [12]: > 79.4 µM (inactive) | IC50 [13]: > 79.4 µM (inactive) | IC50 [14]: > 79.4 µM (inactive)

O=c1c2ccc(F)cc2sn1-c1ccc(Cl)cc1Cl
IC50 (Phosphomannomutase 2): > 100 µM (inactive) | IC50 [15]: 0.534 µM (active) | IC50 [16]: 14.4 µM (active)

Cc1cc(-c2ccc(C)c(S(=O)(=O)N3CCN(c4ccc([N+](=O)[O-])cc4)CC3)c2)on1
IC50 (HEK293 [17]): 7.6 µM (inactive) | IC50 (Tumor necrosis factor): 2.11 µM (active) | IC50 (HEK293 [18]): > 20 µM (inactive) | IC50 (HEK293 [19]): > 20 µM (inactive) | IC50 (HEK293 [20]): > 20 µM (inactive) | IC50 [21]: > 80 µM (inactive) | EC50 (HEK293 [22]): 2.09 µM (active) | IC50 [23]: 2.42 µM (active) | EC50 [24]: > 20 µM (inactive) | IC50 (HEK293 [25]): 2.36 µM (active)

COc1ccc(OC)c(NC(=O)CCNS(=O)(=O)c2ccc3[nH]c(=O)oc3c2)c1
IC50 [26]: > 100 µM (inactive) | EC50 [3]: > 100 µM (inactive) | IC50 [27]: 2.49 µM (active)
